Source: patent US8772504B2, “Substituted benzoxazole, benzimidazole, oxazolopyridine and imidazopyridine derivatives as gamma secretase modulators” (Janssen Pharmaceuticals, Inc., priority 2009, dated 2014)

Experiments:
Format in all cases: cell-based
Aβ42 [1] = assay: Screening for γ-secretase-modulating activity, Method 2: Aβ42 Alphalisa on SKNBE2 cell supernatant; details: Method 2, Table 3c, SKNBE2 cells carrying APP 695 wild type, overnight incubation
Procedure: (§1) Screening was carried out using SKNBE2 cells carrying the APP 695—wild type, grown in Dulbecco's Modified Eagle's Medium/Nutrient mixture F-12 (DMEM/NUT-mix F-12) (HAM) provided by Invitrogen (cat no. 10371-029) containing 5% Serum/Fe supplemented with 1% non-essential amino acids, 1-glutamine 2 mM, Hepes 15 mM, penicillin 50 U/ml (units/ml) en streptomycin 50 μg/ml. Cells were grown to near confluency.
(§2) The screening was performed using a modification of the assay as described in Citron et al (1997) Nature Medicine 3: 67. Briefly, cells were plated in a 384-well plate at 10^4 cells/well in Ultraculture (Lonza, BE12-725F) supplemented with 1% glutamine (Invitrogen, 25030-024), 1% non-essential amino acid (NEAA), penicillin 50 U/ml en streptomycin 50 μg/ml in the presence of test compound at different test concentrations. The cell/compound mixture was incubated overnight at 37° C., 5% CO2. The next day the media were assayed by two sandwich immuno-assays, for Aβ42 and Aβtotal.
(§3) Aβtotal and Aβ42 concentrations were quantified in the cell supernatant using the Aphalisa technology (Perkin Elmer). Alphalisa is a sandwich assay using biotinylated antibody attached to streptavidin coated donorbeads and antibody conjugated to acceptor beads. In the presence of antigen, the beads come into close proximity. The excitation of the donor beads provokes the release of singlet oxygen molecules that trigger a cascade of energy transfer in the acceptor beads, resulting in light emission. To quantify the amount of Aβ42 in the cell supernatant, monoclonal antibody specific to the C-terminus of Aβ42 (JRF/cAβ42/26) was coupled to the receptor beads and biotinylated antibody specific to the N-terminus of Aβ (JRF/AβN/25) was used to react with the donor beads. To quantify the amount of Aβtotal in the cell supernatant, monoclonal antibody specific to the N-terminus of Aβ (JRF/AβN/25) was coupled to the receptor beads and biotinylated antibody specific to the mid region of Aβ (biotinylated 4G8) was used to react with the donor beads.
(§4) To obtain the values reported in Table 3c, the data were calculated as percentage of the maximum amount of amyloid Beta 42 measured in the absence of the test compound. The sigmoidal dose response curves were analyzed using non-linear regression analysis with percentage of the control plotted against the log concentration of the compound. A 4-parameter equation was used to determine the IC50.

Aβtotal [2] = assay: Screening for γ-secretase-modulating activity, Method 2: Aβtotal Alphalisa on SKNBE2 cell supernatant; details: Method 2, Table 3c, SKNBE2 cells carrying APP 695 wild type, overnight incubation
Procedure: as §1, §2, §3, §4

Aβ42 [3] = assay: Screening for γ-secretase-modulating activity, Method 1: Aβ42 sandwich ELISA on SKNBE2 cell media; details: SKNBE2 cells carrying APP 695 wild type
How it was run: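 SKNBE2 cells expressing wild-type APP695 were treated with compound for 18 h in Ultraculture/1% glutamine. Secreted Aβ42 was quantified by sandwich ELISA (C-terminal capture, biotinylated 3D6, TMB, 450 nm), with WST-1 used as a toxicity check. IC50 was derived from 4-parameter fits of % inhibition or % of untreated control.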

Aβtotal [4] = assay: Screening for γ-secretase-modulating activity, Method 1: Aβtotal sandwich ELISA on SKNBE2 cell media; details: SKNBE2 cells carrying APP 695 wild type
Procedure: as §1, with “Gibco” for “Invitrogen”, “31330-38)” for “10371-029)”, “acids.” for “acids, 1-glutamine 2 mM, Hepes 15 mM, penicillin 50 U/ml (units/ml) en streptomycin 50 μg/ml.”
The screening was performed using the assay as described in Citron et al (1997) Nature Medicine 3: 67. Briefly, cells were plated in a 96-well plate at about 10^5 cells/ml one day prior to addition of compounds. Compounds were added to the cells in Ultraculture (Lonza, BE12-725F) supplemented with 1% glutamine (Invitrogen, 25030-024) for 18 hours. The media were assayed by two sandwich ELISAs, for Aβ42 and Aβtotal. Toxicity of the compounds was assayed by WST-1 cell proliferation reagent (Roche, 1 644 807) according to the manufacturer's protocol.
To quantify the amount of Aβtotal in the cell supernatant, samples and standards were added to a 6E10-coated plate. The plate was allowed to incubate overnight at 4° C. in order to allow formation of the antibody-amyloid complex. Following this incubation and subsequent wash steps a selective anti-Aβ-antibody conjugate (biotinylated 4G8) was added and incubated for a minimum of 1 hour in order to allow formation of the antibody-Amyloid-antibody-complex. After incubation and appropriate wash steps, a Streptavidine-Peroxidase-Conjugate was added, followed 30 minutes later by an addition of Quanta Blu fluorogenic peroxidase substrate according to the manufacturer's instructions (Pierce Corp., Rockford, Ill.).
To obtain the values reported in Table 3a, the sigmoidal dose response curves were analysed by computerised curve-fitting, with percent of inhibition plotted against compound concentration. A 4-parameter equation (model 205) in XLfit was used to determine the IC50. The top and the bottom of the curve were fixed to 100 and 0, respectively, and the hill slope was fixed to 1. The IC50 represents the concentration of a compound that is required for inhibiting a biological effect by 50% (Here, it is the concentration where Aβ peptide level is reduced by 50%).
as §4, with “3b,” for “3c,”, “IC50. The values reported in Table 3b are averaged IC50 values.” for “IC50.”

[5] = Homo sapiens, Table 3a, 18 hours, XLfit, top/bottom fixed to 100 and 0, hill slope 1
[6] = Homo sapiens, Table 3b, non-linear regression of % of control, averaged IC50 values
[7] = Table 3a, 18 hours, XLfit, top/bottom fixed to 100 and 0, hill slope 1
[8] = Table 3b, non-linear regression of % of control, averaged IC50 values

Row | SMILES | IC50 (Aβ42 [1]; Homo sapiens) [nM] | IC50 (Aβtotal [2]; Homo sapiens) [nM] | IC50 (Aβ42 [3]; [5]) [nM] | IC50 (Aβ42 [3]; [6]) [nM] | IC50 (Aβtotal [4]; [5]) [nM] | IC50 (Aβtotal [4]; [6]) [nM] | IC50 (Aβ42 [1]) [nM] | IC50 (Aβtotal [2]) [nM] | IC50 (Aβ42 [3]; [7]) [nM] | IC50 (Aβ42 [3]; [8]) [nM] | IC50 (Aβtotal [4]; [7]) [nM] | IC50 (Aβtotal [4]; [8]) [nM]
1 | COc1cc(Nc2cccc3c2nc(CC2CCNCC2)n3C)ccc1-n1cnc(C)c1 [Compound 9] | > 3000 | > 3000 | 600 | 603 | > 3000 | > 3000 | – | – | – | – | – | –
2 | Cc1ncn(-c2ccc(Nc3cccc4c3nc(C)n4C(C)C)cc2)n1 [Compound 20] | – | – | – | – | – | – | > 3000 | > 3000 | > 3000 | > 3000 | > 3000 | > 3000
3 | COc1cc(Nc2cccc3c2nc(C)n3Cc2ccccc2)ccc1-n1cnc(C)c1 [Compound 22] | – | – | – | – | – | – | 151 | > 10000 | < 110 | < 110 | > 3000 | > 3000
4 | Cc1ncn(-c2ccc(Nc3cccc4c3nc(C)n4Cc3ccccc3)cc2)n1 [Compound 23] | – | – | – | – | – | – | > 3000 | > 3000 | 1910 | 1860 | > 10000 | > 10000
5 | CCn1c(CCC(F)(F)F)nc2c(Nc3ccc(-n4cnc(C)c4)c(OC)c3)cccc21 [Compound 35] | – | – | – | – | – | – | 60 | > 10000 | 24 | 22 | > 1000 | > 10000
6 | COc1cccc(-c2nc3c(Nc4ccc(-n5cnc(C)c5)c(OC)c4)cccc3n2C)c1 [Compound 49] | – | – | – | – | – | – | 13 | > 10000 | 20 | 28 | > 1000 | > 3000
7 | CCOc1cc(C)c(-c2nc3c(Nc4ccc(-n5cnc(C)n5)c(OC)c4)cccc3o2)cc1C(C)C [Compound 59] | – | – | – | – | – | – | > 3000 | > 3000 | 7300 | 7760 | 26400 | > 30000
8 | COc1cc(Nc2cccc3c2nc(-c2ccc(F)cc2)n3C(C)(C)C)ccc1-n1cnc(C)n1 [Compound 78] | – | – | – | – | – | – | 100 | > 10000 | < 110 | < 110 | > 3000 | > 3000
9 | COc1cc(Nc2cccc3oc(-c4cccnc4)nc23)ccc1-n1cnc(C)c1 [Compound 86] | – | – | – | – | – | – | > 10000 | > 10000 | > 3000 | > 3000 | > 3000 | > 3000
10 | Cc1ncn(-c2ccc(Nc3cccc4oc(CC(C)C)nc34)nc2)n1 [Compound 87] | – | – | – | – | – | – | > 10000 | > 10000 | > 3000 | > 3000 | > 3000 | –
11 | Cc1ncn(-c2ccc(Nc3cccc4c3nc(-c3ccc(F)cc3)n4C(C)C)nc2)n1 [Compound 89] | – | – | – | – | – | – | 575 | > 10000 | 326 | 324 | > 3000 | > 3000
12 | Cc1ncn(-c2c(F)cc(Nc3cccc4c3nc(-c3ccc(F)cc3)n4C)cc2F)n1 [Compound 102] | – | – | – | – | – | – | 1290 | 8130 | 839 | 871 | > 3000 | > 3000
13 | COc1cc(Nc2cccc3c2nc(-c2ccc(C(F)(F)F)nc2)n3C(C)C)ccc1-n1cnc(C)c1 [Compound 117] | – | – | – | – | – | – | 28 | > 10000 | – | 33 | – | > 3000
14 | COc1cc(Nc2cccc3c2nc(C2CCOCC2)n3C(C)C)ccc1-n1cnc(C)n1 [Compound 120] | – | – | – | – | – | – | 9770 | > 10000 | – | > 3000 | – | –
15 | COc1cc(Nc2cccc3c2nc(-c2ccc(Cl)s2)n3C(C)C)ccc1-n1cnc(C)n1 [Compound 121] | – | – | – | – | – | – | 34 | > 10000 | – | 20 | – | > 3000
16 | Cc1ncn(-c2ccc(Nc3nccc4c3nc(-c3ccc(F)cc3F)n4C)c(F)c2)n1 [Compound 129] | – | – | – | – | – | – | > 10000 | > 10000 | – | > 3000 | – | –
17 | Cc1cn(-c2ccc(Nc3nccc4c3nc(-c3ccc(F)cc3)n4C)cc2F)cn1 [Compound 137] | – | – | – | – | – | – | 21 | > 10000 | – | 50 | – | > 3000
18 | COc1nc(Nc2nc(C)cc3c2nc(-c2ccccc2Cl)n3C)ccc1-n1cnc(C)c1 [Compound 149] | – | – | – | – | – | – | 195 | 9770 | – | 316 | – | > 10000

Further lines, results first:

Row | IC50 (Aβ42 [1]; Homo sapiens) [nM] | IC50 (Aβtotal [2]; Homo sapiens) [nM] | IC50 (Aβ42 [3]; [5]) [nM] | IC50 (Aβ42 [3]; [6]) [nM] | IC50 (Aβtotal [4]; [5]) [nM] | IC50 (Aβtotal [4]; [6]) [nM] | IC50 (Aβ42 [1]) [nM] | IC50 (Aβtotal [2]) [nM] | IC50 (Aβ42 [3]; [7]) [nM] | IC50 (Aβ42 [3]; [8]) [nM] | IC50 (Aβtotal [4]; [7]) [nM] | IC50 (Aβtotal [4]; [8]) [nM] | SMILES
19 | 9 | 9330 | 12 | 12 | > 1000 | > 1000 | – | – | – | – | – | – | COc1cc(Nc2cccc3c2nc(-c2ccc(F)cc2)n3C(C)C)ccc1-n1cnc(C)c1 [Compound 2]
20 | – | – | – | – | – | – | 245 | > 10000 | < 110 | < 110 | > 3000 | > 3000 | COc1cc(Nc2cccc3c2nc(SCC(C)C)n3C)ccc1-n1cnc(C)c1 [Compound 33]
21 | – | – | – | – | – | – | > 3000 | > 3000 | 1950 | 1950 | > 3000 | > 3000 | COc1cc(Nc2cccc3oc(C4CCN(C)CC4)nc23)ccc1-n1cnc(C)c1 [Compound 40]
22 | – | – | – | – | – | – | 7590 | > 10000 | > 3000 | > 3000 | > 3000 | > 3000 | COc1cc(Nc2cccc3oc(C4CCN(C(C)=O)CC4)nc23)ccc1-n1cnc(C)c1 [Compound 41]
23 | – | – | – | – | – | – | 79 | > 10000 | 53 | 58 | > 3000 | > 3000 | COc1cccc(-c2nc3c(Nc4ccc(-n5cnc(C)n5)cc4)cccc3n2C(C)C)c1 [Compound 51]
24 | – | – | – | – | – | – | 21 | > 10000 | 27 | 24 | > 3000 | > 3000 | COc1cc(Nc2cccc3c2nc(-c2ccccc2F)n3C)ccc1-n1cnc(C)c1 [Compound 66]
25 | – | – | – | – | – | – | 35 | > 10000 | 27 | 26 | > 1000 | > 1000 | Cc1cn(-c2ccc(Nc3cccc4c3nc(-c3ccc(F)cc3)n4C)cn2)cn1 [Compound 68]
26 | – | – | – | – | – | – | 102 | > 10000 | 87 | 89 | – | – | Cc1ncn(-c2ccc(Nc3cccc4c3nc(-c3ccc(F)cc3)n4C)cc2)n1 [Compound 103]
27 | – | – | – | – | – | – | 4 | 6610 | – | 10 | – | – | COc1nc(Nc2cccc3c2nc(-c2ccc(F)cc2)n3C(C)C)ccc1-n1cnc(C)c1 [Compound 116]
